Data as given in patent US9045506B2, “Diphosphonate compound and a method for preparing the same and an application of the same” (Chengdu Yunke Pharmaceutical Co., Ltd., priority 2010, dated 2015).
Marks after values point to notes of the source that are not given here.

Experiments:
osteoblasts MG63 = experiment: Osteoblast proliferation, MTT method; type: cell-based; settings: for Cell proliferation (MTT method), absorbance value under 490 nm: MG63, n = 4, x ± s; for effect on MG63 cell proliferation (in words): cocultured 72 h, P<0.05 vs control groups
Method: MTT method is used to evaluate the effects of the drug on the activity of proliferation of osteoblasts MG63, wherein each well of 96-well plate is added with fresh MTT (5 mg/mL) 100 μL, incubated under 37° C. for 4 h, and vibrated every a period of time, then the supernatant is removed, and each well is added with 200 μL DMSO (DMSO, Sigma corp.), and vibrated on micro-oscillator for 10 min, and equivalent amount of liquid is transferred to an new plate, and the absorbance value under 490 nm is measured, referring to table 1.

osteoblasts = experiment: Calcium deposition assay (alizarin red method); type: cell-based; settings: for ARS concentration / calcium nodule size: 5 d, n = 4, x ± s; for calcium deposition of osteoblasts (in words): lower / low concentration
Method: Next, each well is added with 1 mL extract (extract preparation: 800 mL 10% acetic acid with 200 mL anhydrous ethyl alcohol), and extracted for 30 min-45 min, kept in dark, shaken slightly, the absorbance of 450 nm wavelength is measured and recorded. […] As alizarin red S and calcium are linear correlated, the calcium deposition is evaluated according to the alizarin red S concentration.

osteoclasts [1] = experiment: Osteoclast cell formation, counting of TRAP staining positive cells; type: cell-based, Japanese White Rabbit; settings: for OC cell formation, TRAP staining positive cells counted: n = 6, x ± s
Method: (§1) The osteoclasts is cultured using a modified Chambers method, the new-born Japanese White Rabbit (1 week-age, provided by Experimental Animal Center of West China Medical Center of Sichuan University) is sacrificed by neck dislocation, and dipped in 75% ethanol for 5 min, long bones are taken out under sterile condition, and soft tissue, periosteum as well as osteoepiphysis on the bone surface are removed in D-Hanks balanced salt solution, clean the bone shaft with α-MEM 2 times, and then cut off the long bone longitudinally in α-MEM full media (containing 15% fetal calf serum, penicillin 100 U/mL, streptomycin […], 25 m MHEPES, pH 7.0-7.2), scrape the medullar cavity of the bone gently until it is clean, and use a pipette (5 mL syringe, 25 G syringe needle) to rinse the medullar cavity repeatedly with culture media, and then the rinse solution is collected and filtered with cell strainer to remove bone fragment, and centrifuged at 1000 rpm for 5 min, the precipitate is suspended by 10 mL α-MEM, a hematocytometer is used for cell counting, the cell density in suspension is adjusted to 1×10^7/mL, and inoculate the cells in 6-well plates, and co-cultured with glass slide or bone slice, after 60 min the culture media was replaced with α-MEM induction culture media (containing 15% fetal bovine serum, 10 nM 1, 25-(OH)2VitD3, penicillin 100 U/mL, streptomycin 100 μg/mL, 25 mM HEPES, pH 7.0-7.2), the culture media is replaced every 3 days.
Each group of osteoclasts is performed with tartrate-resistant acid phosphatase (TRAP) staining, observed in optical microscope, and the TRAP staining positive cells are counted.

osteoclasts [2] = experiment: Osteoclastic absorption, resorption pit size on bone slices; type: cell-based, Japanese White Rabbit; settings: for formation and size of resorption pit of the osteoclast: 5 days' culture, n = 6, x ± s
Method: as §1

[3] = relative to Etidronate; cited from earlier work

4-(3-carbonylcyclohexano[d][1,2]selenazole-2(3H))-benzyl-1-hydroxyl-methylenediphosphonic acid [SC-8]
Cell proliferation (MTT method), absorbance value under 490 nm (osteoblasts MG63; 10^−5 mol/L, 24 h): 0.376 ± 0.009 | Cell proliferation (MTT method), absorbance value under 490 nm (osteoblasts MG63; 10^−5 mol/L, 48 h): 0.412 ± 0.007 | Cell proliferation (MTT method), absorbance value under 490 nm (osteoblasts MG63; 10^−5 mol/L, 72 h): 0.342 ± 0.008 | Cell proliferation (MTT method), absorbance value under 490 nm (osteoblasts MG63; 10^−7 mol/L, 24 h): 0.373 ± 0.010 | Cell proliferation (MTT method), absorbance value under 490 nm (osteoblasts MG63; 10^−7 mol/L, 48 h): 0.439 ± 0.012 | Cell proliferation (MTT method), absorbance value under 490 nm (osteoblasts MG63; 10^−7 mol/L, 72 h): 0.709 ± 0.010 | Cell proliferation (MTT method), absorbance value under 490 nm (osteoblasts MG63; 10^−9 mol/L, 24 h): 0.355 ± 0.009 | Cell proliferation (MTT method), absorbance value under 490 nm (osteoblasts MG63; 10^−9 mol/L, 48 h): 0.421 ± 0.008 | Cell proliferation (MTT method), absorbance value under 490 nm (osteoblasts MG63; 10^−9 mol/L, 72 h): 0.773 ± 0.013 | effect on MG63 cell proliferation (in words) (osteoblasts MG63; 10^−9 mol/L): enhance MG63 cell proliferation | ARS concentration (osteoblasts; 10^−5 mol/L): 309 ± 13 µg/mL | calcium nodule size (osteoblasts; 10^−5 mol/L): 1.32 ± 0.11 mm^2 | ARS concentration (osteoblasts; 10^−7 mol/L): 354 ± 23 µg/mL | calcium nodule size (osteoblasts; 10^−7 mol/L): 1.66 ± 0.16 mm^2 | ARS concentration (osteoblasts; 10^−9 mol/L): 395 ± 17 µg/mL | calcium nodule size (osteoblasts; 10^−9 mol/L): 1.96 ± 0.19* mm^2 | OC cell formation, TRAP staining positive cells counted (osteoclasts [1]; 10^−5 mol/L, 3 d): 6 ± 2 | OC cell formation, TRAP staining positive cells counted (osteoclasts [1]; 10^−5 mol/L, 5 d): 9 ± 2 | OC cell formation, TRAP staining positive cells counted (osteoclasts [1]; 10^−7 mol/L, 3 d): 10 ± 2 | OC cell formation, TRAP staining positive cells counted (osteoclasts [1]; 10^−7 mol/L, 5 d): 15 ± 4 | OC cell formation, TRAP staining positive cells counted (osteoclasts [1]; 10^−9 mol/L, 3 d): 12 ± 3 | OC cell formation, TRAP staining positive cells counted (osteoclasts [1]; 10^−9 mol/L, 5 d): 21 ± 6 | formation and size of resorption pit of the osteoclast (osteoclasts [2]; 10^−5 mol/L): 12.23 ± 3.06 | formation and size of resorption pit of the osteoclast (osteoclasts [2]; 10^−7 mol/L): 64.45 ± 8.77 | formation and size of resorption pit of the osteoclast (osteoclasts [2]; 10^−9 mol/L): 118.25 ± 14.73

O=c1c2ccccc2[se]n1-c1ccc(CCC(P(=O)(O)O)P(=O)(O)O)cc1 [SC-13, 4-(3-carbonylbenzo[d][1,2]selenazole-2(3H))-phenylethyl-methylenediphosphonic acid]
calcium deposition of osteoblasts (in words) (osteoblasts): increases the calcium deposition of osteoblasts obviously

NCCCC(O)(P(=O)(O)O)P(=O)(O)O [Alen, alendronate sodium, reference compound]
cell proliferation activity (in words) (osteoblasts MG63; 10^−5, 10^−7 mol/L for 72 h, P<0.01 vs control groups): cell proliferation activity is inhibited in different degrees | influence on proliferation of MG63 cells (in words) (osteoblasts MG63; range of concentrations, within 48 h): no influence on proliferation of MG63 cells | calcium deposition of osteoblasts (in words) (osteoblasts): not found that Alen group of low concentration can enhance the calcium deposition of osteoblasts | formation of osteoclasts compared with blank (in words) (osteoclasts [1]; all concentrations): can inhibit the formation of osteoclasts | resorption pits size compared with blank (in words) (osteoclasts [2]; p<0.01): decrease obviously

O=c1c2cc(Cl)ccc2[se]n1-c1ccc(CC(P(=O)(O)O)P(=O)(O)O)cc1 [SC-9, 4-(3-carbonyl-5-chlorobenzo[d][1,2]selenazole-2(3H))-benzyl-methylene diphosphonic acid]
calcium deposition of osteoblasts (in words) (osteoblasts): increases the calcium deposition of osteoblasts obviously

O=c1c2ccccc2sn1-c1ccc(CC(P(=O)(O)O)P(=O)(O)O)cc1 [SC-15, 4-(3-carbonylbenzo[d][1,2]sulfonazole-2(3H))-benzyl-methylene diphosphonic acid]
calcium deposition of osteoblasts (in words) (osteoblasts): increases the calcium deposition of osteoblasts obviously

O=c1c2ccccc2[se]n1-c1ccc(CCC(O)(P(=O)(O)O)P(=O)(O)O)cc1 [SC-14, 4-(3-carbonylbenzo[d][1,2]selenazole-2(3H))-phenylethyl-1-hydroxyl-methylene diphosphonic acid]
calcium deposition of osteoblasts (in words) (osteoblasts): increases the calcium deposition of osteoblasts obviously

O=c1c2ccccc2[se]n1Cc1ccc(CC(O)(P(=O)(O)O)P(=O)(O)O)cc1 [SC-12, 4-(2-methylbenzo[d][1,2]selenazole-3 (2H)-ketone)-benzyl-1-hydroxyl-methylene diphosphonic acid]
calcium deposition of osteoblasts (in words) (osteoblasts): increases the calcium deposition of osteoblasts obviously

O=c1c2ccccc2[se]n1Cc1ccc(CC(P(=O)(O)O)P(=O)(O)O)cc1 [SC-11, 4-(2-methylbenzo[d][1,2]selenazole-3 (2H)-ketone)-benzyl-methylene diphosphonic acid]
calcium deposition of osteoblasts (in words) (osteoblasts): increases the calcium deposition of osteoblasts obviously

O=c1c2ccccc2[se]n1-c1ccc(CC(O)(P(=O)(O)O)P(=O)(O)O)cc1 [SC-2, 4-(3-carbonylbenzo[d][1,2]selenazole-2(3H))-benzyl-methylene-1-hydroxyl-methylene diphosphonic acid]
effect on MG63 cell proliferation (in words) (osteoblasts MG63; 10^−9 mol/L): enhance MG63 cell proliferation | calcium deposition of osteoblasts (in words) (osteoblasts): increases the calcium deposition of osteoblasts obviously

O=c1c2cc(Cl)ccc2[se]n1-c1ccc(CC(O)(P(=O)(O)O)P(=O)(O)O)cc1 [SC-10, 4-(3-carbonyl-5-chlorobenzo[d][1,2]selenazole-2(3H))-benzyl-1-hydroxyl-methylene diphosphonic acid]
calcium deposition of osteoblasts (in words) (osteoblasts): increases the calcium deposition of osteoblasts obviously

O=c1c2ccccc2[se]n1-c1ccc(CC(P(=O)(O)O)P(=O)(O)O)cc1 [SC-1, 4-(3-carbonylbenzo[d][1,2]selenazole-2(3H))-benzyl-methylene diphosphonic acid]
effect on MG63 cell proliferation (in words) (osteoblasts MG63; 10^−9 mol/L): enhance MG63 cell proliferation | calcium deposition of osteoblasts (in words) (osteoblasts): increases the calcium deposition of osteoblasts obviously

O=P(O)(O)C(O)(Cn1ccnc1)P(=O)(O)O [Zoledronate]
bone affinity, times stronger than Etidronate [3]: over 10000 times
